Legend:
Assay type in all cases: in vivo, human
forearm skin = experiment: Forearm skin thickness by micrometer calipers (skin changes associated with aging); conditions: 10% cream twice daily to right forearm for four weeks; subject
Method: In one of the studies related to skin changes associated with aging, skin thickness was measured by micrometer calipers as follows: The skin was grasped with a 2×6 cm metal hinge; the internal faces of which were coated with emery cloth to prevent slippage, and manually squeezed to threshold subject discomfort. Combined thickness of two whole-skin layers including thickness of the two hinge leaves was measured with micrometer calipers. Thickness of the two hinge leaves was subtracted to determine the actual thickness of two whole-skin layers. Triplicate measurements on treated sites were conducted and an average number was used for calculation of the skin thickness. A subject, applied topically twice daily N-acetyl-4-hydroxyphenyl-glycinamide 5% cream to their left forearm for eight weeks. […] While there was no change in skin thickness of their right forearm, their left forearm had increased 49% in skin thickness as measured by the micrometer calipers (Example 1). […] While there was no change in skin thickness of their right forearm, their left forearm had increased 24% in skin thickness as measured by the micrometer calipers (Example 1). […] While there was no change in skin thickness of their left forearm, their right forearm had increased 25% in skin thickness as measured by the micrometer calipers (Example 1).

chronic plaque psoriasis = experiment: Topical treatment of chronic plaque psoriasis
Text: A subject, having chronic plaque psoriasis for 55 year duration resistant to all forms of topical therapy, topically applied N-acetyl-4-hydroxyphenyl-glycinamide 10% cream twice daily to a thick plaque of psoriasis on the right elbow. […] The clinical evaluation was judged to be a 75% improvement after five days of topical treatment. […] Clinical evaluation rated the improvement to be about 90%. Three patients having chronic plaque psoriasis resistant to most forms of topical therapy topically applied N-acetyl-4-acetoxyphenyl-glycinamide 5% cream (Example 24) twice daily to thick plaques of psoriasis. […] The clinical evaluation was judged to be an 80% improvement after one week of topical treatment. […] Clinical evaluation rated the improvement on three patients to be from 95 to 100%.

[1] = system: severe dry skin condition of X-linked ichthyosis; experiment: Topical treatment of X-linked ichthyosis skin under Hays Occlusive Chamber
[2] = 5% cream twice daily, after one week, three patients

Row | SMILES | appearance of treated forearm (forearm skin) | increase in skin thickness (forearm skin) | erythema and thickness of the plaques (chronic plaque psoriasis; 5% cream (Example 24) twice daily, after one week, three patients) | clinical evaluation, improvement (chronic plaque psoriasis; [2]) | psoriatic scales (chronic plaque psoriasis; [2]) | clinical appearance of treated area (chronic plaque psoriasis; 5% cream twice daily, after two weeks, three patients) | conclusion: topical treatment of psoriasis (chronic plaque psoriasis; cream twice daily) | conclusion: topical treatment of severe dry skin and symptomatic relief of congenital ichthyosis ([1]; 10% cream) | clinical appearance of treated site after stopping treatment ([1]; 10% cream one week under chamber, then another week without any further treatment) | clinical appearance of treated site ([1]; 10% cream, 1 cm^2 involved skin of back under Hays Occlusive Chamber, after one week, subject)
1 | CC(=O)NC(=O)CNc1ccc(OC(C)=O)cc1 [N-acetyl-4-acetoxyphenyl-glycinamide] | more firm, smooth, plump and minimally wrinkled when lifted | 25% | diminished substantially | 80% | no evidence of any psoriatic scales | clinically normal | therapeutically effective |  |  | 
2 | COC(=O)CNc1ccc(O)cc1 [4-hydroxyphenyl-glycine methyl ester] |  |  |  |  |  |  |  | therapeutically effective | remained normal in clinical appearance | free of all evidence of ichthyosis

— US6824786B2, “Compositions comprising phenyl-glycine derivatives” (priority 2001, dated 2004)
